From patent US9597407B2, “Targeted antimicrobial moieties” (C3 Jian, Inc., priority 2009, dated 2017)
“Also recorded” adds a separate entry of the source.

How the values were obtained:
[1] = tested on: microorganisms; experiment: Peptide activities: binding, antimicrobial, growth or phenotype altering (Table 8)
Excerpt: In certain embodiments, peptides described herein can have multiple activities. Thus for example, a peptide can have both binding/targeting activity and antimicrobial activity. Such peptides can be used, e.g., in a chimeric construct, for any or all of these properties. Thus, for example, a peptide designated “B” in Table 8 can be used as a targeting peptide. If it is also designated G or M it can also be used for antimicrobial activity.

[2] = tested on: microorganisms; experiment: Morphology, biofilm and growth disruption by peptides (Table 5); format: cell-based; design: key: A: Peptide aggregates; B: Less hyphal formation; Clumps; Diffuse clumps and small polyps; F: Diffuse growth; H: Thin; I: Growth inhibition; Microcolony formation; Rippled; Small polyps; Thick; W: Halo formation on top, microlonies on bottom
Excerpt: In certain embodiments peptides that induce alterations in phenotype or other biological activities can also be used as antimicrobial effector moieties.

[3] = tested on: bacteria; experiment: Binding of targeting peptides to microorganisms (Table 3); conditions: preferably 1x PBS; for Target(s) (microorganisms bound by the targeting peptide) / Target(s) (microorganism bound by the targeting peptide): peptide binding in aqueous buffers that varied depending on peptide solubility; for Target(s): microorganism the targeting peptide binds, binding in aqueous buffers that varied with peptide solubility

PF-472 (MHISHLLDEVEQTEREKAVNVLENMNGNVI; Peptide with targeting and/or antimicrobial activity)
Activities [1]: G B
Organism, effect (morphology, biofilm and growth disruption) ([2]; C. jejuni): C. jejuni (R)
Organism, effect (morphology, biofilm and growth disruption) ([2]; E. faecalis): E. faecalis (A)
Organism, effect (morphology, biofilm and growth disruption) ([2]; MRSA): MRSA (C)
Organism, effect (morphology, biofilm and growth disruption) ([2]; S. pneumoniae): S. pneumoniae (R)
Target(s) (microorganisms bound by the targeting peptide) [3]: S. epidermidis and E. coli and P. aeruginosa and C. albicans and MRSA and S. pneumoniae and E. faecalis and C. jeikeium

PF-546 (PIIAPTIKTQIQ; Peptide with targeting and/or antimicrobial activity)
Activities [1]: G B
Organism, effect (morphology, biofilm and growth disruption) ([2]; C. jeikeium): C. jeikeium (D)
Organism, effect (morphology, biofilm and growth disruption) ([2]; E. coli): E. coli (R)
Organism, effect (morphology, biofilm and growth disruption) ([2]; E. faecalis): E. faecalis (D)
Organism, effect (morphology, biofilm and growth disruption) ([2]; MRSA): MRSA (D)
Organism, effect (morphology, biofilm and growth disruption) ([2]; S. epidermidis): S. epidermidis (D)
Organism, effect (morphology, biofilm and growth disruption) ([2]; S. pneumoniae): S. pneumoniae (D)
Target(s) (microorganisms bound by the targeting peptide) [3]: S. epidermidis; also recorded: E. coli; also recorded: C. albicans; also recorded: S. pneumoniae; also recorded: E. faecalis; also recorded: C. jeikeium

PF-626 (chain 1 KYDFDDFEPEEA; chain 2 KYDFDDFEPEEA; Peptide with targeting and/or antimicrobial activity)
Activities [1]: G B
Organism, effect (morphology, biofilm and growth disruption) ([2]; S. pneumoniae): S. pneumoniae (H)
Target(s) (microorganism bound by the targeting peptide) [3]: S. epidermidis and M. luteus and E. coli and C. albicans and MRSA and S. pneumoniae and E. faecalis and C. jeikeium

PF-027 (HNARKYLEFISQKIDGDKLTKEDSL; Peptide with targeting and/or antimicrobial activity)
Activities [1]: G B
Organism, effect ([2]; MRSA): MRSA (M)
Organism, effect ([2]; S. epidermidis): S. epidermidis (D)
Target(s) [3]: M. luteus and MRSA and E. faecalis and C. jejuni

PF-035 (SFYESY; Peptide with targeting and/or antimicrobial activity)
Activities [1]: G B
Organism, effect ([2]; MRSA): MRSA (M)
Target(s) [3]: S. epidermidis and M. luteus and E. coli and C. albicans and MRSA and C. jeikeium and C. jejuni

PF-756 (chain 1 DALLRLA; chain 2 DALLRLA; Peptide with targeting and/or antimicrobial activity)
Activities [1]: G B
Organism, effect (morphology, biofilm and growth disruption) ([2]; S. pneumoniae): S. pneumoniae (A)
Target(s) (microorganism bound by the targeting peptide) [3]: S. epidermidis and M. luteus and C. albicans and MRSA and C. jeikeium

PF-C072 (KKMFSLIRKVNWIFFILFIVLDLTNVFPLIRTILFAILSRQ; Peptide with targeting and/or antimicrobial activity)
Activities [1]: G B
Organism, effect (morphology, biofilm and growth disruption) ([2]; F. nucleatum): F. nucleatum (T)
Organism, effect (morphology, biofilm and growth disruption) ([2]; P. gingivalis): P. gingivalis (T)
Organism, effect (morphology, biofilm and growth disruption) ([2]; S. mutans): S. mutans (F)
Target(s) (microorganism bound by the targeting peptide) [3]: A. naeslundii; also recorded: F. nucleatum; also recorded: P. gingivalis; also recorded: S. mutans; also recorded: T. denticola

PF-064 (DYYGKE; Peptide with targeting and/or antimicrobial activity)
Activities [1]: G B
Organism, effect ([2]; MRSA): MRSA (M)
Organism, effect ([2]; S. epidermidis): S. epidermidis (D)
Target(s) [3]: E. coli

PF-623 (chain 1 VLFAVYLGALDWLFSWLTQKM; chain 2 VLFAVYLGALDWLFSWLTQKM; Peptide with targeting and/or antimicrobial activity)
Activities [1]: G B
Organism, effect (morphology, biofilm and growth disruption) ([2]; C. jeikeium): C. jeikeium (R)
Organism, effect (morphology, biofilm and growth disruption) ([2]; E. faecalis): E. faecalis (D)
Organism, effect (morphology, biofilm and growth disruption) ([2]; MRSA): MRSA (D)
Organism, effect (morphology, biofilm and growth disruption) ([2]; S. epidermidis): S. epidermidis (M)
Organism, effect (morphology, biofilm and growth disruption) ([2]; S. pneumoniae): S. pneumoniae (D)
Target(s) (microorganism bound by the targeting peptide) [3]: S. epidermidis and P. aeruginosa and MRSA and S. pneumoniae and E. faecalis and C. jeikeium

PF-564 (TIILNDQINSLQERLNKLNAETDRR; Peptide with targeting and/or antimicrobial activity)
Activities [1]: G B
Organism, effect (morphology, biofilm and growth disruption) ([2]; B. subtilis): B. subtilis (D)
Organism, effect (morphology, biofilm and growth disruption) ([2]; C. jeikeium): C. jeikeium (R)
Organism, effect (morphology, biofilm and growth disruption) ([2]; C. jejuni): C. jejuni (R)
Organism, effect (morphology, biofilm and growth disruption) ([2]; MRSA): MRSA (C)
Target(s) (microorganisms bound by the targeting peptide) [3]: S. epidermidis; also recorded: C. albicans; also recorded: S. pneumoniae; also recorded: C. jeikeium

PF-540 (KSILILIKVIFIGQTTIIL; Peptide with targeting and/or antimicrobial activity)
Activities [1]: G B
Organism, effect (morphology, biofilm and growth disruption) ([2]; E. coli): E. coli (R)
Organism, effect (morphology, biofilm and growth disruption) ([2]; MRSA): MRSA (H)
Organism, effect (morphology, biofilm and growth disruption) ([2]; S. epidermidis): S. epidermidis (H)
Organism, effect (morphology, biofilm and growth disruption) ([2]; S. pneumoniae): S. pneumoniae (R)
Target(s) (microorganisms bound by the targeting peptide) [3]: C. albicans

PF-470 (PYSDSYATRPHWEQHRAR; Peptide with targeting and/or antimicrobial activity)
Activities [1]: G B
Organism, effect (morphology, biofilm and growth disruption) ([2]; C. jejuni): C. jejuni (A)
Organism, effect (morphology, biofilm and growth disruption) ([2]; E. faecalis): E. faecalis (A)
Target(s) (microorganisms bound by the targeting peptide) [3]: M. luteus and E. coli and MRSA and E. faecalis and C. jeikeium and C. jejuni

PF-467 (YYKDYFKEI; Peptide with targeting and/or antimicrobial activity)
Activities [1]: G B
Organism, effect (morphology, biofilm and growth disruption) ([2]; S. pneumoniae): S. pneumoniae (H)
Target(s) (microorganisms bound by the targeting peptide) [3]: MRSA and E. faecalis and C. jeikeium and C. jejuni

PF-031 (MPHHSTTSSRIVVPAHQSNMASTPNLSITP; Peptide with targeting and/or antimicrobial activity)
Activities [1]: G B
Organism, effect ([2]; MRSA): MRSA (M)
Target(s) [3]: M. luteus; also recorded: C. albicans

PF-553 (LTIVGNALQQKNQKLLLNQKKITSLG; Peptide with targeting and/or antimicrobial activity)
Activities [1]: G B
Organism, effect (morphology, biofilm and growth disruption) ([2]; B. subtilis): B. subtilis (D)
Organism, effect (morphology, biofilm and growth disruption) ([2]; C. jeikeium): C. jeikeium (R)
Organism, effect (morphology, biofilm and growth disruption) ([2]; MRSA): MRSA (M)
Organism, effect (morphology, biofilm and growth disruption) ([2]; S. pneumoniae): S. pneumoniae (R)
Target(s) (microorganisms bound by the targeting peptide) [3]: S. epidermidis and E. coli and P. aeruginosa and C. albicans and MRSA and S. pneumoniae and C. jeikeium

PF-461 (MTLAIKNCSVTKCLGFGDFVNDDSDSYFDA; Peptide with targeting and/or antimicrobial activity)
Activities [1]: G B
Organism, effect (morphology, biofilm and growth disruption) ([2]; E. faecalis): E. faecalis (A)
Organism, effect (morphology, biofilm and growth disruption) ([2]; MRSA): MRSA (R)
Organism, effect (morphology, biofilm and growth disruption) ([2]; S. pneumoniae): S. pneumoniae (R)
Target(s) (microorganisms bound by the targeting peptide) [3]: E. coli; also recorded: S. pneumoniae

PF-036 (ILNRLSRIVSNEVTSLIYSLK; Peptide with targeting and/or antimicrobial activity)
Activities [1]: G B
Organism, effect ([2]; C. jeikeium): C. jeikeium (A)
Organism, effect ([2]; M. luteus): M. luteus (A)
Organism, effect ([2]; MRSA): MRSA (R)
Organism, effect ([2]; S. epidermidis): S. epidermidis (S)
Target(s) [3]: S. epidermidis and M. luteus and P. mirabilis and E. coli and C. albicans and MRSA and S. pneumoniae and C. jejuni

PF-559 (SRPGKPGGVSIDVSRDRQDILSNYP; Peptide with targeting and/or antimicrobial activity)
Activities [1]: G B
Organism, effect (morphology, biofilm and growth disruption) ([2]; B. subtilis): B. subtilis (C)
Organism, effect (morphology, biofilm and growth disruption) ([2]; C. jejuni): C. jejuni (A)
Target(s) (microorganisms bound by the targeting peptide) [3]: S. epidermidis; also recorded: M. luteus; also recorded: C. albicans; also recorded: C. jeikeium; also recorded: C. jejuni

PF-447 (IDKSRNKDQFSHIFGLYNICSG; Peptide with targeting and/or antimicrobial activity)
Activities [1]: G B
Organism, effect (morphology, biofilm and growth disruption) ([2]; E. faecalis): E. faecalis (C)
Organism, effect (morphology, biofilm and growth disruption) ([2]; MRSA): MRSA (C)
Organism, effect (morphology, biofilm and growth disruption) ([2]; S. epidermidis): S. epidermidis (C)
Organism, effect (morphology, biofilm and growth disruption) ([2]; S. pneumoniae): S. pneumoniae (C)
Target(s) (microorganisms bound by the targeting peptide) [3]: S. epidermidis; also recorded: M. luteus; also recorded: E. coli; also recorded: S. pneumoniae

PF-764 (chain 1 GYFEPGKRD; chain 2 GYFEPGKRD; Peptide with targeting and/or antimicrobial activity)
Activities [1]: G B
Organism, effect (morphology, biofilm and growth disruption) ([2]; MRSA): MRSA (D)
Organism, effect (morphology, biofilm and growth disruption) ([2]; S. pneumoniae): S. pneumoniae (H)
Target(s) (microorganism bound by the targeting peptide) [3]: S. epidermidis and M. luteus and C. albicans and MRSA and S. pneumoniae and E. faecalis and C. jeikeium

PF-011 (MFCYYKQHKGDNFSIEEVKNIIADNEMKVN; Peptide with targeting and/or antimicrobial activity)
Activities [1]: G B
Organism, effect ([2]; C. jeikeium): C. jeikeium (C)
Organism, effect ([2]; MRSA): MRSA (R)
Target(s) [3]: M. luteus; also recorded: E. coli; also recorded: P. aeruginosa; also recorded: S. pneumoniae; also recorded: C. jeikeium

PF-C135 (KNTHAYLRVLRLSSLILSYQASVYPLFAYLCQQKDY; Peptide with targeting and/or antimicrobial activity)
Activities [1]: G B
Organism, effect (morphology, biofilm and growth disruption) ([2]; F. nucleatum): F. nucleatum (C)
Organism, effect (morphology, biofilm and growth disruption) ([2]; S. mutans): S. mutans (F)
Target(s) (microorganism bound by the targeting peptide) [3]: A. naeslundii; also recorded: F. nucleatum; also recorded: P. gingivalis; also recorded: S. mutans
